Measurements as given in patent US6638974B1, “Ascorbyl esters for the treatment of cancer” (University of South Florida, priority 1999, dated 2003).
Read-outs that look alike come from different tables or passages of the source.

Tests used:
HT29 cells [1] = test: MTT cell viability assay, HT29; assay type: cell-based, human; settings: for effect on HT29 cells (MTT): similar concentrations and incubation times as As-P (24 and 48 hours); for inhibition at 150 µM: Homo sapiens, HT-29, 150 μM (5 FU at a similar concentration), read-out: inhibition of HT29 cell growth (MTT)
Description: (§1) HT-29, a human colon adenocarcinoma cell line, and CCD 18, a normal colon fibroblast, were obtained from the American Type Culture Collection (Rockville, Md.). The cells were grown in RPM1 1640 medium containing HEPES (20 mM), fetal bovine serum (10%), sodium bicarbonate (1 g/L), and penicillin (10 U/ml), streptomycin (10 ug/ml) at 37° C. in 5% CO2 humidified atmosphere.
(§2) The effect of various concentrations of As-P, ascorbate, palmitate or 5-fluorouracil (5 FU) on the viability and/or proliferation of HT29 or CCD 18 cells were evaluated. Cells were seeded in 96-well culture plates at 1×10^4 cells/well. The following day, As-P, ascorbate, palmitate or 5 FU were added at various concentrations. Cell viability was evaluated by the MTT assay 24 hours or 48 hours after the addition of the compounds. The effect of As-P on the cell cycle of HT29 cells was also investigated by flow cytometry.

CCD 18 cells = test: MTT cell viability assay, CCD 18; assay type: cell-based, human; settings: for effect on CCD18 fibroblasts (MTT): similar concentrations and incubation times as As-P (24 and 48 hours); for inhibition at 150 µM: Homo sapiens, Fibroblast, read-out: inhibitory effect on CCD 18 fibroblasts (MTT)
Description: as §1, §2

Advanced colon cancer = settings: single agent; cited from earlier work
HT29 cells [2] = test: Cell cycle analysis by flow cytometry, HT29; assay type: cell-based, human; settings: 24 hours
Description: HT29 cells were seeded into 25 cm^2 flasks at a density of 1×10^4 cells/ml. 72 hours after seeding, As-P was added to HT29 cells in culture at a final concentration of 50 μM, 100 μM, 150 μM. Control cells received medium only. After 24 hours of incubation, cells were harvested and processed for flow cytometry DNA analysis.

## O=C1O[C@H]([C@@H](O)CO)C(O)=C1O [ascorbate, reference compound]
HT29 cells [1]
  effect on HT29 cells (MTT): no inhibitory effect
CCD 18 cells
  effect on CCD18 fibroblasts (MTT): no inhibitory effect

## O=c1[nH]cc(F)c(=O)[nH]1 [5 FU, 5-Fluorouracil, reference compound]
HT29 cells [1]; 24 hours
  effect on growth of HT29 cells at 24 hours: little or no inhibitory effect
  inhibition at 150 µM: 14%
HT29 cells [1]; 48 hours, concentration not given
  inhibition of growth of HT29 cells at 48 hours: approximately 40%
HT29 cells [1]; 48 hours
  inhibition at 150 µM: 40%
CCD 18 cells; 24 hours
  effect on growth of CCD 18 fibroblasts at 24 hours: little or no inhibitory effect
CCD 18 cells; 48 hours
  effect on CCD 18 cells at 48 hours: little effect
Advanced colon cancer
  response rate: 10-20%

## CCCCCCCCCCCCCCCC(=O)O [palmitate, reference compound]
HT29 cells [1]
  effect on HT29 cells (MTT): no inhibitory effect
CCD 18 cells
  effect on CCD18 fibroblasts (MTT): no inhibitory effect

## CCCCCCCCCCCCCCCC(=O)OC[C@H](O)[C@H]1OC(=O)C(O)=C1O [As-P, L-Ascorbyl 6-palmitate]
HT29 cells [1]; 24 hours
  inhibition at 150 µM: 73%
HT29 cells [1]; 48 hours
  inhibition at 150 µM: 89%
HT29 cells [1]; above 100 μM
  effect on HT29 cells at higher concentrations: cytotoxic effect
HT29 cells [1]; below 100 μM
  effect on HT29 cell growth at lower concentrations: stimulatory effect
HT29 cells [1]; higher concentrations (>125 μM)
  effect on HT29 cell growth: great inhibitory effect
HT29 cells [1]; lower concentrations (<75 μM)
  effect on HT29 cell growth: slight stimulating effect
CCD 18 cells; 24 hours
  inhibition at 150 µM: ~20%
CCD 18 cells; 48 hours
  inhibition at 150 µM: ~20%
CCD 18 cells; lower concentrations
  effect on CCD 18 fibroblasts at lower concentrations: stimulatory effect
HT29 cells [2]; HT29, 50 μM As-P
  % G2 + M: 7.8%
  % G4/G1: 57.1%
  % S: 35.1%
HT29 cells [2]; HT29, 100 μM As-P
  % G2 + M: 4.3%
  % G4/G1: 73.1%
  % S: 22.6%
HT29 cells [2]; HT29, 150 μM As-P
  % G2 + M: 3.2%
  % G4/G1: 86.1%
  % S: 10.7%
